IC50 data for 74 compounds are collected here from patent US20100075957A1, “AMINODIHYDROTHIAZINE DERIVATIVES SUBSTITUTED WITH A CYCLIC GROUP” (SHIONOGI & CO., LTD., priority 2007, published 2010).

The first assay deals with T1, Recombinant human BACE-1 (Homo sapiens, UniProt P56817).
T1 construct: purchased R&D Systems
T1 sequence (P56817 46-501): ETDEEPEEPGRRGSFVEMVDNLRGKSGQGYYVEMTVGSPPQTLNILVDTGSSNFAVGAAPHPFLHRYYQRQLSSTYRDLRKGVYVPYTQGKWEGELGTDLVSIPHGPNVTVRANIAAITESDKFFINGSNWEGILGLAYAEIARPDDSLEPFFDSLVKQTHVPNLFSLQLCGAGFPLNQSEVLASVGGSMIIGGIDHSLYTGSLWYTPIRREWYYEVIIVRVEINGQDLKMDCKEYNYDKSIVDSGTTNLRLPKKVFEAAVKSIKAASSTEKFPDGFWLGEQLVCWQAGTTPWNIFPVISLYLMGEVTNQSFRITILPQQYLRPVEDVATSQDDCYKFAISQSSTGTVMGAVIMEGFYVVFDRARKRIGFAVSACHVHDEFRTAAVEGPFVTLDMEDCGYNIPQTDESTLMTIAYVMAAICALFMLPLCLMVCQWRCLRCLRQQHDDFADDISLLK
Kind of assay: Assay of β-secretase-inhibiting activity.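 Further: substrate is a peptide carrying biotin and europium cryptate, after the enzyme reaction, Streptavidin-XL665 is added and incubated 1 h at 30 °C before fluorescence reading.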 In kind it is biochemical. The note with it: Recombinant human BACE-1 7.4 nM, substrate peptide 18 nM, pH 5.0, 30° C., 3 hours; Table 139; read-out: IC50.
On to `Cc1cc(C(=O)Nc2cccc([C@]3(C)CCSC(N)=N3)c2)c(C)o1` [Compound 3], for which the IC50 came out at 80 nM. `Cc1cc(C(=O)Nc2cccc([C@]3(C)CCSC(N)=N3)c2)c(C)s1` [Compound 11]: the IC50 is 170 nM. Take `Cc1nc(C)c(C(=O)Nc2ccc(F)c([C@]3(C)CCSC(N)=N3)c2)s1` [Compound 12]: the IC50 came to 160 nM. The same measure, in the same setting: then `C/C=C/COc1ccc(C(=O)Nc2cccc([C@]3(C)CCSC(N)=N3)c2)nc1` [Compound 34], with 100 nM. On to `CSc1ccc(C(=O)Nc2ccc(F)c([C@]3(C)CCSC(N)=N3)c2)s1` [Compound 38], for which the IC50 is 140 nM.

Turning to `C[C@@]1(c2cc(NC(=O)c3ccc(Br)s3)ccc2F)CCSC(N)=N1` [Compound 41], the IC50 was found to be 150 nM. On to `COCCOc1cnc(C(=O)Nc2cccc(C3(C)CCSC(N)=N3)c2)cn1` (centres unmarked) [Compound 62], for which the IC50 was determined as 170 nM. `CC#CC(=O)Nc1cccc([C@]2(C)CCSC(N)=N2)c1` [Compound 65]: the IC50 amounted to 720 nM. `C=Cc1cnc(C(=O)Nc2cccc([C@]3(C)CCSC(N)=N3)c2)cn1` [Compound 66]: the IC50 came to 150 nM. With `COCCOc1cnc(C(=O)Nc2cccc([C@]3(C)CCSC(N)=N3)c2)cn1` [Compound 70], the IC50 was determined as 90 nM.

Turning to `CCCCOc1cnc(C(=O)Nc2cccc(C3(C)CCSC(N)=N3)c2)cn1` (centres unmarked) [Compound 71], the IC50 came out at 160 nM.

Consider `CCCOc1cnc(C(=O)Nc2cccc([C@]3(C)CCSC(N)=N3)c2)cn1` [Compound 72], for which the IC50 amounted to 110 nM. In the case of `CSCCOc1cnc(C(=O)Nc2cccc([C@]3(C)CCSC(N)=N3)c2)cn1` [Compound 76], the IC50 is 180 nM. Regarding `CCSc1cnc(C(=O)Nc2cccc([C@]3(C)CCSC(N)=N3)c2)cn1` [Compound 80], the IC50 is 70 nM.

Turning to `C=CCCOc1cnc(C(=O)Nc2cccc([C@]3(C)CCSC(N)=N3)c2)cn1` [Compound 86], the IC50 was determined as 190 nM. In the case of `CC(C)COc1cnc(C(=O)Nc2cccc([C@]3(C)CCSC(N)=N3)c2)cn1` [Compound 87], the IC50 turned out to be 90 nM. As to `C[C@@]1(c2cccc(NC(=O)c3cnc(OCC(F)F)cn3)c2)CCSC(N)=N1` [Compound 92], the IC50 came to 80 nM. Regarding `COCCOc1ccc(C(=O)Nc2ccc(F)c([C@]3(C)CCSC(N)=N3)c2)nc1` [Compound 93], the IC50 is 80 nM. Still for that read-out and setting: for `C[C@@]1(c2cccc(NC(=O)c3cnc(OCC4CCO4)cn3)c2)CCSC(N)=N1` (some centres unmarked) [Compound 94] the value was 170 nM. Same read-out and setting: for `C[C@@]1(c2cccc(NC(=O)c3cnc(OCc4ccccc4)cn3)c2)CCSC(N)=N1` [Compound 101] the value was 80 nM; for `C#CCCOc1cnc(C(=O)Nc2cccc([C@]3(C)CCSC(N)=N3)c2)cn1` [Compound 105], 130 nM. `CC#CCCOc1cnc(C(=O)Nc2cccc([C@]3(C)CCSC(N)=N3)c2)cn1` [Compound 106]: the IC50 came to 120 nM. Still for that read-out and setting: for `C=C(C)COc1cnc(C(=O)Nc2cccc([C@]3(C)CCSC(N)=N3)c2)cn1` [Compound 109] the value was 100 nM. For `C[C@@]1(c2cccc(NC(=O)c3ccc(OCc4ccc(F)cc4)cn3)c2)CCSC(N)=N1` [Compound 111], the IC50 turned out to be 180 nM. Same read-out and setting: then `C[C@@]1(c2cc(NC(=O)c3ccc(OCCO)cn3)ccc2F)CCSC(N)=N1` [Compound 114], with 160 nM.

Staying with this assay, now noted: Recombinant human BACE-1 7.4 nM, substrate peptide 18 nM, pH 5.0, 30° C., 3 hours; time-resolved fluorescence ratio 665/620; read-out: IC50 values (50% inhibitory concentration against the enzymatic activity).
For the compound `Cn1nc(C(F)(F)F)cc1C(=O)Nc1cccc([C@]2(C)CCSC(N)=N2)c1` [Compound 4], the IC50 was at most 1000 nM. Turning to `Cc1cc(C(=O)Nc2cccc([C@]3(C)CCSC(N)=N3)c2)[nH]n1` [Compound 5], the IC50 is at most 1000 nM.

As to `COc1cc(C(=O)Nc2cccc([C@]3(C)CCSC(N)=N3)c2)n(C)n1` [Compound 18], the IC50 is at most 1000 nM. Consider `Cc1cc(C(=O)Nc2ccc(F)c([C@]3(C)CCSC(N)=N3)c2)on1` [Compound 19], for which the IC50 was at most 1000 nM. Still for that read-out and setting: for `Cc1cc(C(=O)Nc2ccc(F)c([C@]3(C)CCSC(N)=N3)c2)no1` [Compound 20] the value was at most 1000 nM. For the compound `CSc1ccc(NC(=O)c2cnc(C)cn2)cc1[C@]1(C)CCSC(N)=N1` [Compound 21], the IC50 was at most 1000 nM. On to `COc1cc(C(=O)Nc2ccc(F)c([C@]3(C)CCSC(N)=N3)c2)on1` [Compound 22], for which the IC50 was at most 1000 nM. With `COc1cnc(C(=O)Nc2cccc([C@]3(C)CCSC(N)=N3)c2)cn1` [Compound 29], the IC50 is at most 1000 nM. As to `COc1ccc(NC(=O)c2cnc(C)cn2)cc1[C@]1(C)CCSC(N)=N1` [Compound 32], the IC50 is at most 1000 nM. On to `CSc1ccc(C(=O)Nc2cccc([C@]3(C)CCSC(N)=N3)c2)nc1` [Compound 33], for which the IC50 is at most 1000 nM.

With `CC#CCOc1ccc(C(=O)Nc2cccc([C@]3(C)CCSC(N)=N3)c2)nc1` [Compound 35], the IC50 was at most 1000 nM. As for `CCOc1nccnc1C(=O)Nc1ccc(F)c([C@]2(C)CCSC(N)=N2)c1` [Compound 43], the IC50 is at most 1000 nM.

On to `COCCOc1nccnc1C(=O)Nc1ccc(F)c([C@]2(C)CCSC(N)=N2)c1` [Compound 45], for which the IC50 is at most 1000 nM. Still for that read-out and setting: then `COCCOc1cnc(C(=O)Nc2ccc(F)c([C@]3(C)CCSC(N)=N3)c2)c(N)n1` [Compound 46], with at most 1000 nM. As to `C[C@@]1(c2cccc(NC(=O)c3cnc(Cl)cn3)c2)CCSC(N)=N1` [Compound 58], the IC50 is at most 1000 nM. Turning to `C[C@@]1(c2cccc(NC(=O)c3nccnc3Cl)c2)CCSC(N)=N1` [Compound 59], the IC50 is at most 1000 nM. `CCc1cnc(C(=O)Nc2cccc([C@]3(C)CCSC(N)=N3)c2)cn1` [Compound 63]: the IC50 was at most 1000 nM. Turning to `C[C@@]1(c2cccc(NC(=O)C#Cc3ccccc3)c2)CCSC(N)=N1` [Compound 64], the IC50 was at most 1000 nM. As to `C[C@@]1(c2cccc(NC(=O)c3cnc(C(N)=O)cn3)c2)CCSC(N)=N1` [Compound 68], the IC50 is at most 1000 nM. For the compound `CSc1cnc(C(=O)Nc2cccc([C@]3(C)CCSC(N)=N3)c2)cn1` [Compound 69], the IC50 is at most 1000 nM. As to `COCCOc1cnc(C(=O)Nc2ccc(F)c([C@]3(C)CCSC(N)=N3)c2)cn1` [Compound 75], the IC50 was at most 1000 nM. On to `CSc1cnc(C(=O)Nc2ccc(F)c([C@]3(C)CCSC(N)=N3)c2)cn1` [Compound 77], for which the IC50 is at most 1000 nM. For `C[C@@]1(c2cc(NC(=O)c3cnc(Cl)cn3)ccc2F)CCSC(N)=N1` [Compound 78], the IC50 was at most 1000 nM. Still for that read-out and setting: for `C[C@@]1(c2cc(NC(=O)c3cnc(N=[N+]=[N-])cn3)ccc2F)CCSC(N)=N1` [Compound 79] the value was at most 1000 nM; for `CCOCCOc1cnc(C(=O)Nc2cccc([C@]3(C)CCSC(N)=N3)c2)cn1` [Compound 81], at most 1000 nM; for `C[C@@]1(c2cccc(NC(=O)c3cnc(OCC(F)(F)F)cn3)c2)CCSC(N)=N1` [Compound 82], at most 1000 nM.

`C/C=C/COc1cnc(C(=O)Nc2cccc([C@]3(C)CCSC(N)=N3)c2)cn1` [Compound 83]: the IC50 was at most 1000 nM. For `C[C@@]1(c2cc(NC(=O)c3nccnc3Cl)ccc2F)CCSC(N)=N1` [Compound 84], the IC50 was at most 1000 nM.

As for `COc1nccnc1C(=O)Nc1ccc(F)c([C@]2(C)CCSC(N)=N2)c1` [Compound 85], the IC50 is at most 1000 nM. For the compound `C[C@@]1(c2cccc(NC(=O)c3cnc(OCCC(F)(F)F)cn3)c2)CCSC(N)=N1` [Compound 89], the IC50 was at most 1000 nM.

Take `COCCOCCOc1cnc(C(=O)Nc2cccc([C@]3(C)CCSC(N)=N3)c2)cn1` [Compound 90]: the IC50 is at most 1000 nM. Still for that read-out and setting: for `CC#CCOc1cnc(C(=O)Nc2cccc([C@]3(C)CCSC(N)=N3)c2)cn1` [Compound 91] the value was at most 1000 nM; for `COCCOc1ccc(C(=O)Nc2cccc([C@]3(C)CCSC(N)=N3)c2)nc1` [Compound 95], at most 1000 nM. For the compound `COCCCOc1ccc(C(=O)Nc2cccc([C@]3(C)CCSC(N)=N3)c2)nc1` [Compound 96], the IC50 was at most 1000 nM. With `C[C@@]1(c2cccc(NC(=O)c3ccc(OCCF)cn3)c2)CCSC(N)=N1` [Compound 97], the IC50 was at most 1000 nM. For the compound `CC(C)=CCOc1ccc(C(=O)Nc2cccc([C@]3(C)CCSC(N)=N3)c2)nc1` [Compound 98], the IC50 is at most 1000 nM.

As for `CC#CCOc1cnc(C(=O)Nc2ccc(F)c([C@]3(C)CCSC(N)=N3)c2)cn1` [Compound 100], the IC50 is at most 1000 nM. As to `C[C@@]1(c2cccc(NC(=O)c3ccc(OCc4ccccc4)cn3)c2)CCSC(N)=N1` [Compound 102], the IC50 is at most 1000 nM.

With `C#CCOc1cnc(C(=O)Nc2cccc([C@]3(C)CCSC(N)=N3)c2)cn1` [Compound 103], the IC50 was at most 1000 nM. `CC#CCOc1cnc(C(=O)Nc2cccc(C3CCSC(N)=N3)c2)cn1` (centres unmarked) [Compound 107]: the IC50 was at most 1000 nM.

With `CC/C=C\COc1cnc(C(=O)Nc2cccc([C@]3(C)CCSC(N)=N3)c2)cn1` [Compound 108], the IC50 was at most 1000 nM. As for `C[C@@]1(c2cccc(NC(=O)c3ccc(O)cn3)c2)CCSC(N)=N1` [Compound 110], the IC50 was at most 1000 nM.

For `C[C@@]1(c2cc(NC(=O)c3ccc(OCc4ccco4)cn3)ccc2F)CCSC(N)=N1` [Compound 112], the IC50 was at most 1000 nM. As to `CC(C)=NOc1cnc(C(=O)Nc2cccc([C@]3(C)CCSC(N)=N3)c2)cn1` [Compound 113], the IC50 was at most 1000 nM.

For `CCCCCc1cnc(C(=O)Nc2ccc(F)c([C@]3(C)CCSC(N)=N3)c2)cn1` [Compound 115], the IC50 is at most 1000 nM. Regarding `COCC#Cc1cnc(C(=O)Nc2ccc(F)c([C@]3(C)CCSC(N)=N3)c2)cn1` [Compound 116], the IC50 is at most 1000 nM.

For the compound `COC/C=C\c1cnc(C(=O)Nc2ccc(F)c([C@]3(C)CCSC(N)=N3)c2)cn1` [Compound 117], the IC50 is at most 1000 nM. For the compound `COCCCc1cnc(C(=O)Nc2ccc(F)c([C@]3(C)CCSC(N)=N3)c2)cn1` [Compound 118], the IC50 was at most 1000 nM. As for `C[C@@]1(c2cc(NC(=O)c3ccc(O)cn3)ccc2F)CCSC(N)=N1` [Compound 119], the IC50 is at most 1000 nM.
